Results from US12690589B2, “Herbicidal compositions comprising pyroxasulfone” (BASF SE, priority 2024, dated 2026).
Several values for one entry are separate records, joined by “and”; a condition that tells them apart may be missing. Equal values may be shown once.

What was measured:
Assay in all cases: Post-emergence application in field trials, herbicidal activity (damage scale 0 to 100%)
Assay type in all cases: in vivo
[1] = tested on: Amaranthus palmeri (AMAPA); conditions: height 30 cm, 21 DAT, Table 1.1
Protocol: (§1) In the examples below, using the method of S. R. Colby (1967) “Calculating synergistic and antagonistic responses of herbicide combinations”, Weeds 15, p. 22ff., the value E, which is expected if the activity of the individual active compounds is only additive, was calculated:
(§2) [formula] • wherein • X=percent activity using active herbicide A at an application rate a; • Y=percent activity using active herbicide B (e.g. pyroxasulfone) at an application rate b; • E=expected activity (in %) by A+B at application rates a+b.
(§3) If the value found experimentally is higher than the value E calculated according to Colby, a synergistic effect is present.
(§4) On field test sites, natural weed infestation or seeded weeds were treated post-emergence of the weeds.
(§5) In the field trials, the weeds were treated as indicated below.
In the following experiments, the herbicidal activity for the individual herbicidal compositions (solo and mixture applications) was assessed at the indicated days after treatment (DAT). The assessments for the damage on undesired weeds caused by the composition was carried out using a scale from 0 to 100%, compared to the untreated control plants. Here, 0 means no damage and 100 means complete destruction of the plants. […]

[2] = tested on: Echinochloa colonum (ECHCO); conditions: height 20-25 cm, 25 DAT, Table 3.2
Protocol: as §1, §2, §3, §4, §5
(§6) In the following experiments, the herbicidal activity for the individual herbicidal compositions (solo and mixture applications) was assessed at the indicated days after treatment (DAT). The assessments for the damage on undesired weeds caused by the composition was carried out using a scale from 0 to 100%, compared to the untreated control plants. Here, 0 means no damage and 100 means complete destruction of the plants.
(§7) Herbicide A-1 (300 g/l) and pyroxasulfone (85% WG) were, together with addition of 0.25 l/ha Dash® MSO Max as adjuvant, formulated in water as distribution medium (water volume 200 l/ha) and sprayed with commercial flat fan nozzles.

[3] = tested on: Amaranthus cruentus (AMACR); conditions: height 20-25 cm
Protocol: as §1, §2, §3, §4, §5, §6, §7

Sorghum vulgare (SORVU) = conditions: height 20-25 cm, 14 DAT, Table 3.1
Protocol: as §1, §2, §3, §4, §5, §6, §7

[4] = tested on: Amaranthus hybridus (AMACH); conditions: height 20-25 cm, 14 DAT, Table 3.1
Protocol: as §1, §2, §3, §4, §5, §6, §7

Glycine max (GLXMA) = tested on: Glycine max (GLXMA)
Outline: (§8)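 Field sites with natural or seeded weeds were sprayed post-emergence via flat fan nozzles in 200 l/ha water plus 0.25 v/v % MSO adjuvant, solo or mixed with pyroxasulfone and other partners. Damage was scored 0–100% versus untreated plants at indicated DAT. Colby expected values were used to judge synergy.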

Senecio vulgaris (SENVU) = conditions: growth stage 61-62, height 25-30 cm
Outline: as §8

[5] = tested on: Commelina benghalensis (COMBE); conditions: 21 DAT
[6] = tested on: Brachiaria plantaginea (BRAPL); conditions: growth stage 21-25, height 10-15 cm, 20 DAT, Table 2.1
[7] = 7 DAT, stage 12-13, height 7-11 cm, g ai/ha A-1 12.5, B 70, C-4 12.5
[8] = 42 DAT, stage 12-13, height 7-11 cm, g ai/ha A-1 18, B 70
[9] = 42 DAT, stage 12-13, height 7-11 cm, g ai/ha A-1 18, B 90

## Cn1nc(C(F)(F)F)c(CS(=O)(=O)C2=NOC(C)(C)C2)c1OC(F)F [B, pyroxasulfone]
[1]; B 120 g ai/ha
  % Herbicidal activity: 2%
[2]; B 120 g ai/ha
  % Herbicidal activity: 12%
[3]; B 120 g ai/ha, 14 DAT, Table 3.1
  % Herbicidal activity: 13%
[3]; B 120 g ai/ha, 25 DAT, Table 3.2
  % Herbicidal activity: 16%
Sorghum vulgare (SORVU); B 120 g ai/ha
  % Herbicidal activity: 5%
[4]; B 120 g ai/ha
  % Herbicidal activity: 16%
Glycine max (GLXMA); [7]
  % Herbicidal activity: 0%
Glycine max (GLXMA); [8]
  % Herbicidal activity: 0%
Glycine max (GLXMA); [9]
  % Herbicidal activity: 0%
Glycine max (GLXMA); GLXMA, growth stage 12-13, height 7-11 cm, B 70 g ai/ha, 7 DAT, Table 4.1
  % Herbicidal activity: 0%
Glycine max (GLXMA); GLXMA, growth stage 12-13, height 7-11 cm, B 70 g ai/ha, 21 DAT, Table 4.3
  % Herbicidal activity: 0%
Glycine max (GLXMA); GLXMA, growth stage 12-13, height 7-11 cm, B 90 g ai/ha, 7 DAT, Table 4.1
  % Herbicidal activity: 0%
Glycine max (GLXMA); GLXMA, growth stage 12-13, height 7-11 cm, B 90 g ai/ha, 21 DAT, Table 4.3
  % Herbicidal activity: 0%
Senecio vulgaris (SENVU); B 70 g ai/ha, 7 DAT, Table 4.2
  % Herbicidal activity: 30%
Senecio vulgaris (SENVU); B 70 g ai/ha, 21 DAT, Table 4.4
  % Herbicidal activity: 20% and 10%
Senecio vulgaris (SENVU); B 90 g ai/ha, 21 DAT, Table 4.4
  % Herbicidal activity: 20%
[5]; growth stage 11-14, height 2-10 cm, B 120 g ai/ha, Table 2.6
  % Herbicidal activity: 10%
[5]; height 20-25 cm, B 120 g ai/ha, Table 2.2
  % Herbicidal activity: 0%
[6]; B 120 g ai/ha
  % Herbicidal activity: 0%

## CCOC(=O)COc1ccccc1Oc1nc(-n2c(=O)cc(C(F)(F)F)n(C)c2=O)c(F)cc1Cl [A-1, ethyl 2-[2-[[3-chloro-5-fluoro-6-[3-methyl-2,6-dioxo-4-(trifluoromethyl)pyrimidin-1-yl]-2-pyridyl]oxy]phenoxy]acetate]
[1]; A-1 25 g ai/ha
  % Herbicidal activity: 85%
[2]; A-1 50 g ai/ha
  % Herbicidal activity: 55%
[3]; A-1 25 g ai/ha, 14 DAT, Table 3.1
  % Herbicidal activity: 88%
[3]; A-1 25 g ai/ha, 25 DAT, Table 3.2
  % Herbicidal activity: 89%
[3]; A-1 50 g ai/ha, 14 DAT, Table 3.1
  % Herbicidal activity: 91%
[3]; A-1 50 g ai/ha, 25 DAT, Table 3.2
  % Herbicidal activity: 91%
Sorghum vulgare (SORVU); A-1 50 g ai/ha
  % Herbicidal activity: 88%
[4]; A-1 50 g ai/ha
  % Herbicidal activity: 87%
Glycine max (GLXMA); [7]
  % Herbicidal activity: 90%
Glycine max (GLXMA); [8]
  % Herbicidal activity: 95%
Glycine max (GLXMA); [9]
  % Herbicidal activity: 95%
Glycine max (GLXMA); GLXMA, growth stage 12-13, height 7-11 cm, A-1 12.5 g ai/ha, 7 DAT, Table 4.1
  % Herbicidal activity: 90%
Glycine max (GLXMA); GLXMA, growth stage 12-13, height 7-11 cm, A-1 12.5 g ai/ha, 21 DAT, Table 4.3
  % Herbicidal activity: 95%
Glycine max (GLXMA); GLXMA, growth stage 12-13, height 7-11 cm, A-1 18 g ai/ha, 7 DAT, Table 4.1
  % Herbicidal activity: 90%
Glycine max (GLXMA); GLXMA, growth stage 12-13, height 7-11 cm, A-1 18 g ai/ha, 21 DAT, Table 4.3
  % Herbicidal activity: 92%
Senecio vulgaris (SENVU); A-1 12.5 g ai/ha, 7 DAT, Table 4.2
  % Herbicidal activity: 90%
Senecio vulgaris (SENVU); A-1 12.5 g ai/ha, 21 DAT, Table 4.4
  % Herbicidal activity: 40%
Senecio vulgaris (SENVU); A-1 18 g ai/ha, 21 DAT, Table 4.4
  % Herbicidal activity: 40%
[5]; growth stage 11-14, height 2-10 cm, A-1 50 g ai/ha, Table 2.6
  % Herbicidal activity: 94%
[5]; height 20-25 cm, A-1 25 g ai/ha, Table 2.2
  % Herbicidal activity: 42%
[6]; A-1 25 g ai/ha
  % Herbicidal activity: 49%
